Consider one molecule from ChEMBL document CHEMBL5346903, “Discovery of novel and bioavailable histone deacetylases and cyclin-dependent kinases dual inhibitor to impair the stemness of leukemia cells” (Eur J Med Chem, 2023).

By IC50 is commonly meant the concentration that inhibits the measured activity by half. For orientation: inhibition means the share of the control response that was lost under treatment.

Experiment [1] deals with Kasumi 1. Briefly: Antiproliferative activity against human Kasumi 1 cells incubated for 72 hrs by CCK8 assay. The settings on record: Kasumi 1, 72 h. The experiment is classed as functional, cell-based. A general note: Tetrazolium dyes change colour on reduction, which living cells bring about.
Experiment [2] concerns the target CDK1/Cyclin A (Homo sapiens) (UniProt P06493+P20248). Briefly: Inhibition of CDK1/cyclinA2 (unknown origin) at 100 nM preincubated for 20 mins followed by [gamma-33P]ATP addition measured after 120 mins in presence of ATP by Hot-SpotSM kinase assay relative to control. The experiment is classed as protein-complex assay. Particulars: time 140.0 min.
Experiment [3] concerns the target T1, Cyclin-dependent kinase 5/CDK5 activator 1 (Homo sapiens) (UniProt Q00535+Q15078). The experiment can be described thus: Inhibition of CDK5/p35NCK (unknown origin) at 100 nM preincubated for 20 mins followed by [gamma-33P]ATP addition measured after 120 mins in presence of ATP by Hot-SpotSM kinase assay relative to control. Type of experiment: protein-complex assay. Particulars: time 140.0 min.

Experiment [4] deals with CDK6/cyclin D3 (Homo sapiens) (UniProt P30281+Q00534). The experiment can be described thus: Inhibition of CDK6/cyclinD3 (unknown origin) at 100 nM preincubated for 20 mins followed by [gamma-33P]ATP addition measured after 120 mins in presence of ATP by Hot-SpotSM kinase assay relative to control. The experiment is classed as protein-complex assay. Particulars: time 140.0 min.

A short description of experiment [5]: Antiproliferative activity against human SKNO-1 cells incubated for 72 hrs by CCK8 assay. Type of experiment: functional, cell-based. Particulars: SKNO-1, 72 h.
The target of experiment [6] is CDK6/cyclin D1 (Homo sapiens) (UniProt P24385+Q00534). The experiment can be described thus: Inhibition of CDK6/cyclinD1 (unknown origin) at 100 nM preincubated for 20 mins followed by [gamma-33P]ATP addition measured after 120 mins in presence of ATP by Hot-SpotSM kinase assay relative to control. Type of experiment: protein-complex assay. Particulars: time 140.0 min.

Experiment [7] has as its target Cyclin-dependent kinase 1/cyclin B1 (Homo sapiens) (UniProt P06493+P14635). The experiment can be described thus: Inhibition of CDK1/cyclinB1 (unknown origin) at 100 nM preincubated for 20 mins followed by [gamma-33P]ATP addition measured after 120 mins in presence of ATP by Hot-SpotSM kinase assay relative to control. Particulars: time 140.0 min. Type of experiment: protein-complex assay.

Experiment [8] concerns the target Cyclin-C/Cyclin-dependent kinase 19 (Homo sapiens) (UniProt Q9BWU1+P24863). Briefly: Inhibition of CDK19/cyclinC (unknown origin) at 100 nM preincubated for 20 mins followed by [gamma-33P]ATP addition measured after 120 mins in presence of ATP by Hot-SpotSM kinase assay relative to control. Type of experiment: protein-complex assay. The settings on record: time 140.0 min.

Experiment [9] has as its target T1, Cyclin-dependent kinase 5/CDK5 activator 1 (Homo sapiens). Briefly: Inhibition of CDK5/p25NCK (unknown origin) at 100 nM preincubated for 20 mins followed by [gamma-33P]ATP addition measured after 120 mins in presence of ATP by Hot-SpotSM kinase assay relative to control. Type of experiment: protein-complex assay. The settings on record: time 140.0 min.
For experiment [10], the system named is Kasumi 1. Briefly: Synergistic antiproliferative activity against human Kasumi 1 cells assessed as combination index incubated for 72 hrs in presence of Chidamide by CCK-8 assay. The experiment is classed as functional.
The next experiment relates to HL-60. Briefly: Antiproliferative activity against human HL-60 cells incubated for 72 hrs by CCK8 assay. Type of experiment: functional, cell-based. Particulars: HL-60, 72 h.
The target of experiment [11] is CDK3/Cyclin E (Homo sapiens) (UniProt P24864+Q00526). Briefly: Inhibition of CDK3/cyclinE1 (unknown origin) at 100 nM preincubated for 20 mins followed by [gamma-33P]ATP addition measured after 120 mins in presence of ATP by Hot-SpotSM kinase assay relative to control. The experiment is classed as protein-complex assay. Particulars: time 140.0 min.
Experiment [12] has as its target CDK12/Cyclin K (Homo sapiens) (UniProt O75909+Q9NYV4). The experiment can be described thus: Inhibition of CDK12/cyclinK (unknown origin) at 100 nM preincubated for 20 mins followed by [gamma-33P]ATP addition measured after 120 mins in presence of ATP by Hot-SpotSM kinase assay relative to control. Type of experiment: protein-complex assay. The settings on record: time 140.0 min.

For a further experiment, the system named is U-937. Briefly: Antiproliferative activity against human U-937 cells incubated for 72 hrs by CCK8 assay. The experiment is classed as functional, cell-based. Particulars: U-937, 72 h.
For experiment [13], the target named is Cyclin-dependent kinase 4/cyclin D1 (Homo sapiens) (UniProt P11802+P24385). The experiment can be described thus: Inhibition of CDK4/cyclinD1 (unknown origin) at 100 nM preincubated for 20 mins followed by [gamma-33P]ATP addition measured after 120 mins in presence of ATP by Hot-SpotSM kinase assay relative to control. Type of experiment: protein-complex assay. Particulars: time 140.0 min.

The target in experiment [14] is Cyclin-dependent kinase 13/Cyclin-K (Homo sapiens) (UniProt Q14004+O75909). Briefly: Inhibition of CDK13/cyclinK (unknown origin) at 100 nM preincubated for 20 mins followed by [gamma-33P]ATP addition measured after 120 mins in presence of ATP by Hot-SpotSM kinase assay relative to control. The experiment is classed as protein-complex assay. Particulars: time 140.0 min.

The target of experiment [15] is CDK4/Cyclin D3 (Homo sapiens) (UniProt P11802+P30281). The experiment can be described thus: Inhibition of CDK4/cyclinD3 (unknown origin) at 100 nM preincubated for 20 mins followed by [gamma-33P]ATP addition measured after 120 mins in presence of ATP by Hot-SpotSM kinase assay relative to control. Type of experiment: protein-complex assay. The settings on record: time 140.0 min.

Experiment [16] has as its target CDK1/Cyclin E (Homo sapiens) (UniProt P06493+P24864). The experiment can be described thus: Inhibition of CDK1/cyclinE1 (unknown origin) at 100 nM preincubated for 20 mins followed by [gamma-33P]ATP addition measured after 120 mins in presence of ATP by Hot-SpotSM kinase assay relative to control. The experiment is classed as protein-complex assay. Particulars: time 140.0 min.

T1 sequence (Q00535 whole entry): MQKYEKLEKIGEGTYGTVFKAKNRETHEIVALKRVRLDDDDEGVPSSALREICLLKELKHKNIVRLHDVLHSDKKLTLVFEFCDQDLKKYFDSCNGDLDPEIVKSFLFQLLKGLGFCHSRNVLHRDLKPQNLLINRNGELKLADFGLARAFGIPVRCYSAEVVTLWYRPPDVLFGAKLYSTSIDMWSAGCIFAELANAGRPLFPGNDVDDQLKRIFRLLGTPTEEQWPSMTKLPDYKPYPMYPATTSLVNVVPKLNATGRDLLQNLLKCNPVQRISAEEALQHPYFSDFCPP
T1 sequence (Q15078 99-307 partner limits assumed): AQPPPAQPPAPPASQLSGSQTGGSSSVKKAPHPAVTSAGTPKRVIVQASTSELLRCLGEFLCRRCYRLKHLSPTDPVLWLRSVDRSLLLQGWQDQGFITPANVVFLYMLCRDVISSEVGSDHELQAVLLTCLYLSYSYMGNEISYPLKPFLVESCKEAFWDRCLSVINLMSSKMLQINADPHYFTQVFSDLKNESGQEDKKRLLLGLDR
Chain of CDK1/Cyclin E (Homo sapiens) (P06493 whole entry, looked up): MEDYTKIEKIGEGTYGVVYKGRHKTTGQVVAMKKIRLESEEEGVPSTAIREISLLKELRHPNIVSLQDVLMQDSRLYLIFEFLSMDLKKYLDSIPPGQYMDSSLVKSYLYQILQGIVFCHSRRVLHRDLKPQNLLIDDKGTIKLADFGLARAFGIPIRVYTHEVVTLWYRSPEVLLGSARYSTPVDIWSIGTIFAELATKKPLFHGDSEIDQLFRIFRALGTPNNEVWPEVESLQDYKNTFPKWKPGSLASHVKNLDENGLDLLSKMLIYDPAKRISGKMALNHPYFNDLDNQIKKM
Chain of CDK1/Cyclin E (Homo sapiens) (P24864 whole entry, looked up): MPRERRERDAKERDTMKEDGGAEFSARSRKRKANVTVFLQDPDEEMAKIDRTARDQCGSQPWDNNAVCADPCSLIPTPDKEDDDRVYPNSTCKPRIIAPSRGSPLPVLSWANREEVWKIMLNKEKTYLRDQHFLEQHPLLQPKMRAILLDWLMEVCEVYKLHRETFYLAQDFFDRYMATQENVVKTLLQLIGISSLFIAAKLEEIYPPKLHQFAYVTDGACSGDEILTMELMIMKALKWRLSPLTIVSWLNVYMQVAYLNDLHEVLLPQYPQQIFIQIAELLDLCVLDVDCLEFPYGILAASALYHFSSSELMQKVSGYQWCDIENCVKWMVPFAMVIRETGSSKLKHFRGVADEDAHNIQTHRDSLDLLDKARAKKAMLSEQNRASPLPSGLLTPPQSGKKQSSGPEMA
Chain of CDK1/Cyclin A (Homo sapiens) (P06493 whole entry, looked up): as the sequence (P06493 whole entry, looked up) above
Chain of CDK1/Cyclin A (Homo sapiens) (P20248 whole entry, looked up): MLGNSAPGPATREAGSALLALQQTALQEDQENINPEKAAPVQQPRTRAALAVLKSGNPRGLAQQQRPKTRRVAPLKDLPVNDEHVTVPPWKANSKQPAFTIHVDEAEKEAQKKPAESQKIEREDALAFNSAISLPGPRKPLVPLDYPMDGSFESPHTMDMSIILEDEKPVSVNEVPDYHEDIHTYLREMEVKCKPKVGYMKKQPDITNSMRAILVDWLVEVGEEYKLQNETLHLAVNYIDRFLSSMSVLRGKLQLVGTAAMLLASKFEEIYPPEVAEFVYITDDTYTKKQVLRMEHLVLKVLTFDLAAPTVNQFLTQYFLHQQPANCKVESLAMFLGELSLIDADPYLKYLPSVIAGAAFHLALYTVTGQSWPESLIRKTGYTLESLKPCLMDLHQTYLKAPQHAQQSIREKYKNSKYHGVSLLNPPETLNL
Chain of Cyclin-dependent kinase 1/cyclin B1 (Homo sapiens) (P06493 whole entry, looked up): as the sequence (P06493 whole entry, looked up) above
Chain of Cyclin-dependent kinase 1/cyclin B1 (Homo sapiens) (P14635 whole entry, looked up): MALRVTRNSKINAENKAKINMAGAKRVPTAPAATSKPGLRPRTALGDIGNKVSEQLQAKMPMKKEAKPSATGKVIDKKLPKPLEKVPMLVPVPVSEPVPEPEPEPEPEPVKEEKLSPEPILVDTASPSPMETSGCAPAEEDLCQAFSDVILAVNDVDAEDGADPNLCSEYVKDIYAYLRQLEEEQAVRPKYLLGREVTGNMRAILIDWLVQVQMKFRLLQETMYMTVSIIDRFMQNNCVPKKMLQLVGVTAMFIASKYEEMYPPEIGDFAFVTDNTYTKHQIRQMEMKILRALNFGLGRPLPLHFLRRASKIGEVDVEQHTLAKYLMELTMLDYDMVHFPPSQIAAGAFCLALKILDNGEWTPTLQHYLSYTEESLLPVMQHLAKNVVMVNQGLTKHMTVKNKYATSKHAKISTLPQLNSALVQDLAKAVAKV
Chain of CDK12/Cyclin K (Homo sapiens) (O75909 whole entry, looked up): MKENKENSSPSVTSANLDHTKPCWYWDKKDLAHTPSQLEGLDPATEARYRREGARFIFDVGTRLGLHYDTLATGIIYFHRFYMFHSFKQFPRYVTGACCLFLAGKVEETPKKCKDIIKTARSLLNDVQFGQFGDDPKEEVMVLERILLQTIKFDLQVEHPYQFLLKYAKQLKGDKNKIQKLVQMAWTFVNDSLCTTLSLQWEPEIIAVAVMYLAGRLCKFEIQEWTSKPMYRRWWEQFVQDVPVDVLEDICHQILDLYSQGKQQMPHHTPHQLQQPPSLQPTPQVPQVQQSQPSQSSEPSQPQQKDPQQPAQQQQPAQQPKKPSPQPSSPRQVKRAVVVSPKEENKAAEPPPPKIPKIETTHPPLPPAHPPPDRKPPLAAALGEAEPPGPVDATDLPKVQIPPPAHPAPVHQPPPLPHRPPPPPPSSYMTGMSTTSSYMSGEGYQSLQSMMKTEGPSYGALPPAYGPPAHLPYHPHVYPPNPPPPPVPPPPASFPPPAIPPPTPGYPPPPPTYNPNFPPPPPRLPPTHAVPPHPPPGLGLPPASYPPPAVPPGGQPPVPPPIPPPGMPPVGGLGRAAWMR
Chain of CDK12/Cyclin K (Homo sapiens) (Q9NYV4 whole entry, looked up): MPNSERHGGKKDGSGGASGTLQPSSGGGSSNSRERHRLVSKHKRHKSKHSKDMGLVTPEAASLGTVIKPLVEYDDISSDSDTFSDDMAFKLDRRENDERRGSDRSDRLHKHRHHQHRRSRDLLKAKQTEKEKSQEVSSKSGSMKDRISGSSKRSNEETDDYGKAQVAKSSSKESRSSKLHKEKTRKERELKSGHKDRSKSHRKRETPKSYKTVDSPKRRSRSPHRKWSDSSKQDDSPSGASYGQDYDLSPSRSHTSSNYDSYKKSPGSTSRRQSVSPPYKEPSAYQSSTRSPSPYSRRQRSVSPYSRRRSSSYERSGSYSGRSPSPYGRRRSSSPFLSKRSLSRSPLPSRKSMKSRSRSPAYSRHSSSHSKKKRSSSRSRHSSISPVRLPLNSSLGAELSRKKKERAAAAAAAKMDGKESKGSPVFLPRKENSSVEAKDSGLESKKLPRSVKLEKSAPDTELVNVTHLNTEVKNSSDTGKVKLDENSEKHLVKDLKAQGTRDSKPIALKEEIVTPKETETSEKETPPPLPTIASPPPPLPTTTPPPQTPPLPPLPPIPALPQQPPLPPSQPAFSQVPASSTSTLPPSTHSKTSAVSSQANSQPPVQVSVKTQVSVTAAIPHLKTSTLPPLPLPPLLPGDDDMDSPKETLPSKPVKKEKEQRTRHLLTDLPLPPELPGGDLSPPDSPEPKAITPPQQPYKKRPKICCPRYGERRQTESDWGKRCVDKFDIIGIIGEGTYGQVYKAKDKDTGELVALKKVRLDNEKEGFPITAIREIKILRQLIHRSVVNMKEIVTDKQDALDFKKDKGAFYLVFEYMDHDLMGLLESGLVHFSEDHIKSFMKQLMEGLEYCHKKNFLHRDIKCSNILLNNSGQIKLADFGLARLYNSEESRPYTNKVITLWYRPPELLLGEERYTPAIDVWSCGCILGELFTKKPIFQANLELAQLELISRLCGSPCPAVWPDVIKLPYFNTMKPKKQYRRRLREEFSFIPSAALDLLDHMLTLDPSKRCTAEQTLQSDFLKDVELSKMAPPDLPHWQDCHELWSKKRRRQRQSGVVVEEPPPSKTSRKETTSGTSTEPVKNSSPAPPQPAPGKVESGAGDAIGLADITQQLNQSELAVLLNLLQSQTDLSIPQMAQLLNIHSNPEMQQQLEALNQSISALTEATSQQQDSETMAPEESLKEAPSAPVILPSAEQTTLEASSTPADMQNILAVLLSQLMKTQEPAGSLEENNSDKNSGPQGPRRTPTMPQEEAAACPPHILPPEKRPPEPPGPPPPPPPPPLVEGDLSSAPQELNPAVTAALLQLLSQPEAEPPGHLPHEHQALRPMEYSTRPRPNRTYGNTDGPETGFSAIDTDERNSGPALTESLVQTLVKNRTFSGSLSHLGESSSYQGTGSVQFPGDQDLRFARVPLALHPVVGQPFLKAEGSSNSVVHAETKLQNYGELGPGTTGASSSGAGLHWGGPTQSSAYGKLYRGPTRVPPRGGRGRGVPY

As to `O=C(NC1CCNCC1)c1n[nH]cc1NC(=O)c1c(Cl)cccc1Cl` [AT-7519], the IC50 in the experiment on Kasumi 1 [1] was 1480 nM; in experiment [5], 1220 nM; in the experiment with HL-60 it was 2330 nM; with U-937, 1150 nM. Further, the inhibition in [2] was found to be 24%; in experiment [3], 62.5%; in experiment [4], 33.2%; in experiment [6], 56.8%; in experiment [7] it was 39.3%; in experiment [8] it was 6.49%. Besides, the inhibition in experiment [9] turned out to be 76.9%; in [11], 26.5%; in [12], 85%; in experiment [13], 68.7%; in [14], 87%; in [15], 74.6%. The inhibition in [16] is 31.4%. Also, the CI with Kasumi 1 [10] is under 1.
